Laboratory results taken from the NIST ThermoML archive (doi:10.1021/je034087q).
± gives the expanded uncertainty stated by the source.

Experiment: xn = mol fraction of the nth substance listed
Conditions: 323.15 K, Fluid (supercritical or subcritical phases)

CCCCC [pentane] + O=C=O
mass density (2770 kPa, x2 = 0.214): 612 ± 4 kg/m3
mass density (3730 kPa, x2 = 0.36): 633 ± 4 kg/m3
mass density (3800 kPa, x2 = 0.214): 617 ± 4 kg/m3
mass density (4510 kPa, x2 = 0.36): 635 ± 4 kg/m3
mass density (5380 kPa, x2 = 0.36): 636 ± 4 kg/m3
mass density (5920 kPa, x2 = 0.214): 623 ± 4 kg/m3
mass density (6240 kPa, x2 = 0.36): 640 ± 4 kg/m3
mass density (6870 kPa, x2 = 0.671): 707 ± 4 kg/m3
mass density (7170 kPa, x2 = 0.36): 643 ± 4 kg/m3
mass density (7390 kPa, x2 = 0.791): 655 ± 4 kg/m3
mass density (7500 kPa, x2 = 0.671): 713 ± 4 kg/m3
mass density (7530 kPa, x2 = 0.214): 627 ± 4 kg/m3
mass density (7770 kPa, x2 = 0.791): 663 ± 4 kg/m3
mass density (8020 kPa, x2 = 0.87): 577 ± 4 kg/m3
mass density (8150 kPa, x2 = 0.36): 645 ± 4 kg/m3
mass density (8150 kPa, x2 = 0.87): 584 ± 4 kg/m3
mass density (8220 kPa, x2 = 0.916): 454 ± 3 kg/m3
mass density (8230 kPa, x2 = 0.916): 458 ± 3 kg/m3
mass density (8240 kPa, x2 = 0.916): 460 ± 3 kg/m3
mass density (8240 kPa, x2 = 0.939): 352 ± 2 kg/m3
mass density (8260 kPa, x2 = 0.87): 590 ± 4 kg/m3
mass density (8270 kPa, x2 = 0.916): 468 ± 3 kg/m3
mass density (8270 kPa, x2 = 0.939): 356 ± 2 kg/m3
mass density (8280 kPa, x2 = 0.791): 670 ± 4 kg/m3
mass density (8290 kPa, x2 = 0.939): 358 ± 2 kg/m3
mass density (8310 kPa, x2 = 0.939): 361 ± 2 kg/m3
mass density (8320 kPa, x2 = 0.916): 475 ± 3 kg/m3
mass density (8330 kPa, x2 = 0.939): 363 ± 2 kg/m3
mass density (8370 kPa, x2 = 0.671): 719 ± 4 kg/m3
mass density (8370 kPa, x2 = 0.916): 483 ± 3 kg/m3
mass density (8380 kPa, x2 = 0.939): 368 ± 2 kg/m3
mass density (8390 kPa, x2 = 0.901): 515 ± 3 kg/m3
mass density (8410 kPa, x2 = 0.916): 491 ± 3 kg/m3
mass density (8420 kPa, x2 = 0.87): 597 ± 4 kg/m3
mass density (8420 kPa, x2 = 0.939): 375 ± 2 kg/m3
mass density (8430 kPa, x2 = 0.901): 520 ± 3 kg/m3
mass density (8450 kPa, x2 = 0.916): 499 ± 3 kg/m3
mass density (8460 kPa, x2 = 0.901): 524 ± 3 kg/m3
mass density (8460 kPa, x2 = 0.939): 380 ± 2 kg/m3
mass density (8500 kPa, x2 = 0.901): 529 ± 3 kg/m3
mass density (8500 kPa, x2 = 0.916): 508 ± 3 kg/m3
mass density (8500 kPa, x2 = 0.939): 386 ± 2 kg/m3
mass density (8530 kPa, x2 = 0.901): 533 ± 3 kg/m3
mass density (8540 kPa, x2 = 0.939): 393 ± 2 kg/m3
mass density (8550 kPa, x2 = 0.87): 602 ± 4 kg/m3
mass density (8570 kPa, x2 = 0.901): 538 ± 3 kg/m3
mass density (8570 kPa, x2 = 0.916): 517 ± 3 kg/m3
mass density (8570 kPa, x2 = 0.939): 399 ± 3 kg/m3
mass density (8620 kPa, x2 = 0.901): 542 ± 3 kg/m3
mass density (8620 kPa, x2 = 0.939): 406 ± 3 kg/m3
mass density (8650 kPa, x2 = 0.916): 527 ± 3 kg/m3
mass density (8660 kPa, x2 = 0.939): 413 ± 3 kg/m3
mass density (8670 kPa, x2 = 0.901): 548 ± 3 kg/m3
mass density (8700 kPa, x2 = 0.939): 420 ± 3 kg/m3
mass density (8710 kPa, x2 = 0.87): 610 ± 4 kg/m3
mass density (8710 kPa, x2 = 0.901): 552 ± 3 kg/m3
mass density (8710 kPa, x2 = 0.916): 536 ± 3 kg/m3
mass density (8740 kPa, x2 = 0.939): 428 ± 3 kg/m3
mass density (8760 kPa, x2 = 0.901): 558 ± 4 kg/m3
mass density (8810 kPa, x2 = 0.916): 546 ± 3 kg/m3
mass density (8810 kPa, x2 = 0.939): 436 ± 3 kg/m3
mass density (8830 kPa, x2 = 0.901): 562 ± 4 kg/m3
mass density (8850 kPa, x2 = 0.939): 444 ± 3 kg/m3
mass density (8860 kPa, x2 = 0.791): 681 ± 4 kg/m3
mass density (8890 kPa, x2 = 0.901): 568 ± 4 kg/m3
mass density (8890 kPa, x2 = 0.939): 453 ± 3 kg/m3
mass density (8920 kPa, x2 = 0.87): 619 ± 4 kg/m3
mass density (8930 kPa, x2 = 0.916): 556 ± 3 kg/m3
mass density (8950 kPa, x2 = 0.939): 461 ± 3 kg/m3
mass density (8980 kPa, x2 = 0.901): 573 ± 4 kg/m3
mass density (9010 kPa, x2 = 0.939): 470 ± 3 kg/m3
mass density (9050 kPa, x2 = 0.901): 579 ± 4 kg/m3
mass density (9070 kPa, x2 = 0.916): 568 ± 4 kg/m3
mass density (9070 kPa, x2 = 0.939): 479 ± 3 kg/m3
mass density (9120 kPa, x2 = 0.87): 624 ± 4 kg/m3
mass density (9140 kPa, x2 = 0.901): 583 ± 4 kg/m3
mass density (9140 kPa, x2 = 0.939): 489 ± 3 kg/m3
mass density (9210 kPa, x2 = 0.939): 500 ± 3 kg/m3
mass density (9230 kPa, x2 = 0.901): 590 ± 4 kg/m3
mass density (9240 kPa, x2 = 0.916): 579 ± 4 kg/m3
mass density (9280 kPa, x2 = 0.36): 647 ± 4 kg/m3
mass density (9300 kPa, x2 = 0.939): 511 ± 3 kg/m3
mass density (9350 kPa, x2 = 0.901): 595 ± 4 kg/m3
